# Test results from a melting point compilation (Tetko et al.).
row,Compound,melting point [°C]
1,O=C(Nc1nccs1)C(F)(F)C(F)(F)C(F)(F)C(F)(F)C(F)(F)C(F)(F)C(F)(F)C(F)(F)F,146
2,CC(C)(C)c1cc(N)c(C(N)=O)s1,146 to 148
3,CC(=O)c1ccc(-c2cccc([N+](=O)[O-])c2)cc1,108
4,CCCCOc1ccc(-c2nnc3n2NC(c2ccco2)S3)cc1 (stereo unspecified),127
5,FC(F)(F)c1cc(P(c2cc(C(F)(F)F)cc(C(F)(F)F)c2)c2cc(C(F)(F)F)cc(C(F)(F)F)c2)cc(C(F)(F)F)c1,100
6,N=C(c1ccccc1)c1ccccc1,-30
7,Cc1c(N)cccc1N,106
8,N#Cc1ccnc(N2CCCC2)c1,79 to 80
9,COC1(C=O)C=CC2=C(C1)OCO2 (stereo unspecified),129
10,CSc1nc(=O)[nH]c2c1CCCC2,264 to 266
11,O=C(Cl)COc1ccc(Cl)cc1,19
12,N#Cc1c(C(F)(F)F)cc(Cl)nc1Cl,38 to 40
13,Cc1cccc(C(=O)C(=O)c2ccccc2)n1,76.8
14,Cc1csc2ncnc(NN)c12,182 to 183
15,FC(Cl)C(Cl)(Cl)Cl (stereo unspecified),-95.3
16,CCN(CC)C(=O)c1cccnc1,25
17,ON=Cc1c(F)cccc1Cl,133
18,COC(=O)c1sccc1S(=O)(=O)Cl,62 to 66
19,Cc1c([N+](=O)[O-])c(C)c([N+](=O)[O-])c(C(C)(C)C)c1[N+](=O)[O-],110
20,CCOC(=O)C(=NOC(C)(C)C(=O)OC(C)(C)C)c1csc(N)n1,168 to 174
21,CC(=O)c1sc(-c2ccc(Cl)cc2)cc1N,138 to 140
22,C=CCOC(Cn1ccnc1)c1ccc(Cl)cc1Cl (stereo unspecified),52.7
23,COc1ccc(C(=O)c2ccccc2O)c(O)c1,68
24,CCCCCCCCCCc1ccc(C(C)=O)cc1,33 to 35
25,CCOC(=O)C1=C(C)OC(N)=C(C#N)C1c1ccccc1 (stereo unspecified),189 to 190
26,O=S(=O)(Cl)c1ccc(-c2ccno2)s1,69 to 70

row,Compound,melting point [°C]
1,O=C1c2ccccc2C(=O)C1(O)C1(O)C(=O)c2ccccc2C1=O,252
2,CCCCCCCCC(C)CC (stereo unspecified),-58
3,CCOC(=O)c1nn(-c2cc(-c3ccc(OC)cc3)n[nH]2)c(=N)c(-c2nc3ccccc3s2)c1C,175
4,NC(=S)NNC(N)=S,200 to 203
5,O=C1OC2(CCCCC2)OC1c1ccccc1 (stereo unspecified),87
6,O=C(O)CCc1ccc(CCC(=O)O)cc1,229 to 233
7,COc1ccc(-n2ncc(C=O)c2C)cc1,80 to 82
8,C#CCCCCCCCCCCCCCCCCCC,36
9,COC(=O)CCC(C)C1CCC2C3C=CC4CC(OC(C)=O)CCC4(C)C3CC(OC(C)=O)C12C (stereo unspecified),86.5 to 87.5
10,CCCCCCCCCCNCCCCCCCCCC,40
11,CC(C)S(=O)(=O)CC#N,32 to 34
12,CCCCOCOCCCC,-58.1
13,C1COCO1,-26
14,O=C1c2ccccc2C(=O)c2cc3ccccc3cc21,291
15,O=C1NC(=O)C(=NO)C(=O)N1,236 to 242
16,CNc1cc(Cl)ccc1[N+](=O)[O-],104 to 107
17,CC(C)C(N)CC(=O)O (stereo unspecified),206 to 209
18,CC(=O)c1cc(F)c(Cl)cc1Cl,35
19,O=C(OOC(=O)c1ccc(Cl)cc1Cl)c1ccc(Cl)cc1Cl,106
20,O=[N+]([O-])c1ccc(O)c2ncccc12,180
21,CCC1(O)C(=O)OCc2c1cc1n(c2=O)Cc2cc3c(CN(C)C)c(O)ccc3nc2-1 (stereo unspecified),216
22,CC(=O)N1CCc2cc([N+](=O)[O-])ccc21,177
23,O=C(O)C1(C(=O)Nc2ccc(Cl)cc2Cl)CC1,195
24,ON=Cc1ccc(F)cc1,83.5
25,CC(=O)c1nn(-c2ccccc2[N+](=O)[O-])c(=N)s1,186
